{"source": "patent US10472315B2", "about": "“Inhibitors of methionine aminopeptidases and methods of treating disorders” (THE JOHNS HOPKINS UNIVERSITY, priority 2009, dated 2019)", "key": {"MtMetAP1c": {"target": "T1, MtMetAP1c (Mycobacterium tuberculosis, UniProt P9WK19)", "T1 construct": "made in house; host or cells: E. coli BL21", "T1 sequence (P9WK19 whole entry)": "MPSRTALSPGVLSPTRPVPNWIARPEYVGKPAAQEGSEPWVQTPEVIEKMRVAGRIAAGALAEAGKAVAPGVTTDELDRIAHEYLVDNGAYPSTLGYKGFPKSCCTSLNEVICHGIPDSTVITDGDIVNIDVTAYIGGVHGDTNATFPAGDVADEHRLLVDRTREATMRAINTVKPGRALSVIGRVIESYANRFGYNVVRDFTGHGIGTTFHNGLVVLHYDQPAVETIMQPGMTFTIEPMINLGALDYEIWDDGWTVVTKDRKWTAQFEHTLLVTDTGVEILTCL", "test": "Coupled methionine-proline aminopeptidase assay (Met-Pro-pNA), IC50 determination", "assay_type": "biochemical, M. tuberculosis", "conditions": "for inhibition of MtMetAP1c, in words: statement on MtMetAPs / both enzymes", "method": "(§1) Determination of IC50 of Inhibitors of MtMetAPs and Clustering of Structural Classes of Inhibitors (ASDI-ISIS)\n(§2) We determined the concentration needed for 50% inhibition in 96-well plates at final concentrations ranging from 100 μM-300 nM (for 81 compounds that were available in larger quantities). The total reaction volume was 50 μL and each reaction contained each MtMetAP1 respectively and 40 mM Hepes buffer (p.H 7.5), 100 mM NaCl, 100 μg/mL BSA, 0.1 U/mL ProAP, 1.5 μM CoCl2, 600 μM substrate (Met-Pro-pNA). The enzyme was pre-incubated with compounds for 20 min at room temperature followed by addition of substrate. The reaction was incubated at room temperature for 30 min and monitored at 405 nm on a spectrophotometer. The background hydrolysis was corrected and the data was fitted against the sigmoidal-dose response (variable slope) equation using GraphPad Prism software."}, "MtMetAP1a": {"target": "T2, MtMetAP1a (Mycobacterium tuberculosis, UniProt P9WK21)", "T2 construct": "made in house; host or cells: E. coli BL21 (DE3)", "T2 sequence (P9WK21 whole entry)": "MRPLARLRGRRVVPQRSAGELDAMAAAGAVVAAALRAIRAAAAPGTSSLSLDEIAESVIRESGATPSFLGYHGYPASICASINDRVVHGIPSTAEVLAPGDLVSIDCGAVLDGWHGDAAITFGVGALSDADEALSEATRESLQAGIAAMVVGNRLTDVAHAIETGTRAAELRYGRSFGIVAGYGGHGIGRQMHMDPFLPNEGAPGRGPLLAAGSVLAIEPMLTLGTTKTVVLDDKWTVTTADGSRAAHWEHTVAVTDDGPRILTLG", "test": "Coupled methionine-proline aminopeptidase assay (Met-Pro-pNA), IC50 determination", "assay_type": "biochemical, M. tuberculosis", "conditions": "for inhibition of MtMetAP1a, in words: statement on MtMetAPs / both enzymes", "method": "as §1, §2"}, "[1]": {"system": "Aged-cultured M. tuberculosis H37Ra", "test": "microbe, parasite or virus in culture", "assay_type": "cell-based", "conditions": "for MIC: Mycobacterium tuberculosis, H37RA, read-out: M.I.C. (μg/mL) Aged-cultured M. tuberculosis"}, "M. tuberculosis H37Rv": {"system": "M. tuberculosis H37Rv", "test": "Minimum inhibitory concentration in replicating M. tuberculosis", "assay_type": "cell-based", "conditions": "for MIC: Mycobacterium tuberculosis, H37RV, 336 h, read-out: M.I.C. (μg/mL) M. tuberculosis"}, "[2]": {"conditions": "recombinant enzyme, 1.5 μM CoCl2, 600 μM Met-Pro-pNA, read-out: IC50 (μM) MtMetAP1a"}}, "note": "Values joined by “and” are separate entries in the source; they are usually repeats but may differ in a detail not shown here. Identical values can stand only once. “Also recorded” adds a separate entry of the source. Like-named read-outs stand apart in the source and are kept apart here."}
{"smiles": "COc1ccc2c(c1)-c1nc(NC=NO)sc1CC2", "note": "[Amidoxime 49, N′-hydroxy-N-(8-methoxy-4,5-dihydronaphtho[1,2-d]thiazol-2-yl)formimidamide]", "values": [{"measurement": "potency against MtMetAP1c when compared to 48", "setting": "MtMetAP1c; relative to amidoxime 48", "result": "two times less potent"}]}
{"smiles": "ON=CNc1nc2c(s1)CCOc1cc3c(cc1-2)OCO3", "note": "[Amidoxime 58]", "values": [{"measurement": "IC50", "setting": "MtMetAP1a; read-out: inhibitor of MtMetAP1a (potency in text)", "result": 0.76, "unit": "µM"}, {"measurement": "improvement over the lead-like hit 48, MtMetAP1a", "setting": "MtMetAP1a; relative to amidoxime 48", "result": 48, "unit": "fold"}, {"measurement": "inhibition of MtMetAP1a, in words", "setting": "MtMetAP1a", "result": "very potent"}, {"measurement": "IC50", "setting": "MtMetAP1c; read-out: inhibitor of MtMetAP1c (potency in text)", "result": 0.06, "unit": "µM"}, {"measurement": "improvement over the lead-like hit 48, MtMetAP1c", "setting": "MtMetAP1c; relative to amidoxime 48", "result": 7, "unit": "fold"}, {"measurement": "inhibition of MtMetAP1c, in words", "setting": "MtMetAP1c", "result": "very potent"}]}
{"smiles": "O=C1C(Cl)=C(N2C(=O)c3c(Cl)c(Cl)c(Cl)c(Cl)c3C2=O)C(=O)c2ccccc21", "note": "[Compound 2]", "values": [{"measurement": "IC50", "setting": "MtMetAP1a; [2]", "result": "4 ± 0.3", "unit": "µM"}, {"measurement": "MIC", "setting": "[1]", "result": 23.8, "unit": "µg/mL"}, {"measurement": "increase in MIC values relative to compounds 4 and 20", "setting": "M. tuberculosis H37Rv", "result": "about a two-fold increase"}, {"measurement": "MIC", "setting": "M. tuberculosis H37Rv", "result": 25, "unit": "µg/mL"}]}
{"smiles": "O=C1C(Cl)=C(N2CCCCC2)C(=O)c2ccccc21", "note": "[Compound 3]", "values": [{"measurement": "IC50", "setting": "MtMetAP1a; [2]", "result": "8 ± 1.3", "unit": "µM"}, {"measurement": "MIC", "setting": "[1]", "result": "> 27.6", "unit": "µg/mL"}, {"measurement": "MIC", "setting": "M. tuberculosis H37Rv", "result": "> 25", "unit": "µg/mL"}]}
{"smiles": "O=C1C(Cl)=C(Cl)C(=O)c2ccccc21", "note": "[Compound 4, 2,3-dichloro-1,4-naphthoquinone]", "values": [{"measurement": "IC50", "setting": "MtMetAP1a", "result": "3.3 ± 0.3", "unit": "µM"}, {"measurement": "IC50", "setting": "MtMetAP1c", "result": "6.6 ± 1.2", "unit": "µM"}, {"measurement": "effectiveness against the aged-cultured form compared with the replicating form", "setting": "[1]", "result": "equally effective"}, {"measurement": "MIC", "setting": "[1]", "result": "5.7 to 11.4", "unit": "µg/mL"}, {"measurement": "M.I.C. (μg/mL) M. tuberculosis", "setting": "M. tuberculosis H37Rv", "result": 10, "unit": "µg/mL"}, {"measurement": "MIC", "setting": "M. tuberculosis H37Rv", "result": 10, "unit": "µg/mL"}]}
{"smiles": "NC1=C(Cl)C(=O)c2ccccc2C1=O", "note": "[Compound 5]", "values": [{"measurement": "IC50", "setting": "MtMetAP1a; [2]", "result": "> 100", "unit": "µM"}]}
{"smiles": "O=C1C(Cl)=C(NCc2ccc(Cl)cc2)C(=O)c2ccccc21", "note": "[Compound 6]", "values": [{"measurement": "IC50", "setting": "MtMetAP1a; [2]", "result": "> 100", "unit": "µM"}]}
{"smiles": "CN1CCN(C2=C(Cl)C(=O)c3ccccc3C2=O)CC1", "note": "[Compound 7]", "values": [{"measurement": "IC50", "setting": "MtMetAP1a; [2]", "result": "> 100", "unit": "µM"}]}
{"smiles": "O=C1C(Cl)=C(N2CCN(c3cccc(Cl)c3)CC2)C(=O)c2ccccc21", "note": "[Compound 8]", "values": [{"measurement": "IC50", "setting": "MtMetAP1a; [2]", "result": "> 100", "unit": "µM"}]}
{"smiles": "O=C1C(Cl)=C(N2CCN(c3ccc(Cl)c(Cl)c3)CC2)C(=O)c2ccccc21", "note": "[Compound 9]", "values": [{"measurement": "IC50", "setting": "MtMetAP1a; [2]", "result": "> 100", "unit": "µM"}]}
{"smiles": "Cc1ccc(Cl)cc1N1CCN(C2=C(Cl)C(=O)c3ccccc3C2=O)CC1", "note": "[Compound 10]", "values": [{"measurement": "IC50", "setting": "MtMetAP1a; [2]", "result": "> 100", "unit": "µM"}]}
{"smiles": "O=C1C(Cl)=C(Nc2cccc(C(F)(F)F)c2)C(=O)c2ccccc21", "note": "[Compound 12]", "values": [{"measurement": "IC50", "setting": "MtMetAP1a; [2]", "result": "> 30", "unit": "µM"}]}
{"smiles": "O=C1C(Cl)=C(Nc2cccc(F)c2)C(=O)c2ccccc21", "note": "[Compound 13]", "values": [{"measurement": "IC50", "setting": "MtMetAP1a; [2]", "result": "> 30", "unit": "µM"}]}
{"smiles": "COC(=O)c1ccc(NC2=C(Cl)C(=O)c3ccccc3C2=O)cc1", "note": "[Compound 14]", "values": [{"measurement": "IC50", "setting": "MtMetAP1a; [2]", "result": "> 30", "unit": "µM"}]}
{"smiles": "CN(C)c1ccc(NC2=C(Cl)C(=O)c3ccccc3C2=O)cc1", "note": "[Compound 15]", "values": [{"measurement": "IC50", "setting": "MtMetAP1a; [2]", "result": "> 30", "unit": "µM"}]}
{"smiles": "O=C1C(Cl)=C(Nc2ccccc2)C(=O)c2ccccc21", "note": "[Compound 16]", "values": [{"measurement": "IC50", "setting": "MtMetAP1a; [2]", "result": "> 50", "unit": "µM"}]}
{"smiles": "Cc1cccc(NC2=C(Cl)C(=O)c3ccccc3C2=O)c1", "note": "[Compound 17]", "values": [{"measurement": "IC50", "setting": "MtMetAP1a; [2]", "result": "18.6 ± 6.1", "unit": "µM"}]}
{"smiles": "COc1ccc(NC2=C(Cl)C(=O)c3ccccc3C2=O)cc1", "note": "[Compound 18]", "values": [{"measurement": "IC50", "setting": "MtMetAP1a; [2]", "result": "15.9 ± 0.6", "unit": "µM"}]}
{"smiles": "Cc1cc(C)cc(NC2=C(Cl)C(=O)c3ccccc3C2=O)c1", "note": "[Compound 19]", "values": [{"measurement": "IC50", "setting": "MtMetAP1a; [2]", "result": "13.9 ± 1", "unit": "µM"}]}
{"smiles": "O=C1C(Br)=C(Br)C(=O)c2ccccc21", "note": "[Compound 20, 2,3-dibromo-1,4-naphthoquinone]", "values": [{"measurement": "IC50", "setting": "MtMetAP1a; [2]", "result": "~1 µM and 1.14 µM"}, {"measurement": "IC50", "setting": "MtMetAP1c; recombinant enzyme, 1.5 μM CoCl2, 600 μM Met-Pro-pNA, read-out: IC50 (μM) MtMetAP1c", "result": "~1 µM and 0.71 µM"}, {"measurement": "effectiveness against the aged-cultured form compared with the replicating form", "setting": "[1]", "result": "equally effective"}, {"measurement": "MIC", "setting": "M. tuberculosis H37Rv", "result": "10 to 25", "unit": "µg/mL"}]}
{"smiles": "O=C1C(Oc2ccc(F)cc2)=C(Oc2ccc(F)cc2)C(=O)c2ccccc21", "note": "[Compound 21]", "values": [{"measurement": "IC50", "setting": "MtMetAP1a; [2]", "result": "4.93 ± 0.2", "unit": "µM"}, {"measurement": "increase in MIC values relative to compounds 4 and 20", "setting": "M. tuberculosis H37Rv", "result": "about a two-fold increase"}, {"measurement": "MIC", "setting": "M. tuberculosis H37Rv", "result": "> 25", "unit": "µg/mL"}]}
{"smiles": "O=C1C(Cl)=C(Oc2ccc(F)cc2)C(=O)c2ccccc21", "note": "[Compound 22]", "values": [{"measurement": "IC50", "setting": "MtMetAP1a; [2]", "result": "7.58 ± 0.28", "unit": "µM"}, {"measurement": "increase in MIC values relative to compounds 4 and 20", "setting": "M. tuberculosis H37Rv", "result": "about a two-fold increase"}, {"measurement": "MIC", "setting": "M. tuberculosis H37Rv", "result": "> 25", "unit": "µg/mL"}]}
{"smiles": "O=C1C=CC(=O)c2c(O)cccc21", "note": "[Compound 23]", "values": [{"measurement": "IC50", "setting": "MtMetAP1a; [2]", "result": "> 50", "unit": "µM"}]}
{"smiles": "CC1=CC(=O)c2c(O)cccc2C1=O", "note": "[Compound 24]", "values": [{"measurement": "IC50", "setting": "MtMetAP1a; [2]", "result": "> 50", "unit": "µM"}]}
{"smiles": "O=C1C=C(O)C(=O)c2ccccc21", "note": "[Compound 25]", "values": [{"measurement": "IC50", "setting": "MtMetAP1a; [2]", "result": "> 50", "unit": "µM"}]}
{"smiles": "CCCN(CCC)C1=C(Cl)C(=O)c2ccccc2C1=O", "note": "[Compound 26]", "values": [{"measurement": "IC50", "setting": "MtMetAP1a; [2]", "result": "> 50", "unit": "µM"}]}
{"smiles": "O=C(NC1=C(Cl)C(=O)c2ccccc2C1=O)c1cc(C(F)(F)F)cc(C(F)(F)F)c1", "note": "[Compound 27]", "values": [{"measurement": "IC50", "setting": "MtMetAP1a; [2]", "result": "> 50", "unit": "µM"}]}
{"smiles": "CC1=C(C/C=C(\\C)CCCC(C)CCCC(C)C)C(=O)c2ccccc2C1=O", "note": "(centres unmarked) [Compound 28]", "values": [{"measurement": "IC50", "setting": "MtMetAP1a; [2]", "result": "> 50", "unit": "µM"}]}
{"smiles": "CC1=CC(=O)c2ccccc2C1=O", "note": "[Compound 29]", "values": [{"measurement": "IC50", "setting": "MtMetAP1a; [2]", "result": "> 50", "unit": "µM"}]}
{"smiles": "Oc1c(Br)cc(Cl)c2cccnc12", "note": "[Compound 69, 7-bromo-5-chloroquinolin-8-ol]", "values": [{"measurement": "inhibition of MtMetAP1a, in words", "setting": "MtMetAP1a", "result": "low micromolar range; also recorded: most potent"}, {"measurement": "inhibition of MtMetAP1c, in words", "setting": "MtMetAP1c", "result": "low micromolar range; also recorded: most potent"}]}
